Reference: US10736883B2, “Triazole furan compounds as agonists of the APJ receptor” (AMGEN INC., priority 2016, dated 2020)

Target: APJ receptor (Homo sapiens (Human), UniProt P35414)
Experiment: [35S]GTPγS binding assay on membranes from CHO cells stably expressing human APJ receptor
Type: biochemical
Conditions: membranes of CHO cells stably expressing human APJ receptor, means of several independent experiments, read-out: Activity hAPJ SPA EC50 IP
Method: The human APJ receptor was cloned by polymerase chain reaction and the gene encoding the receptor was subcloned in pFLAG-CMV™-3 expression vector (Sigma, Saint Louis, Mo. USA) in-house at Amgen. A GTPγS binding assay was performed on membranes prepared from CHO cells stably expressing human APJ receptor. The optimum experimental conditions for the concentrations of GDP, MgCl2, and NaCl in the assay buffer were initially determined. The assay was performed in assay buffer [20 mM HEPES, pH 7.5, 5 mM MgCl2, and 0.1% (w/v) BSA with 200 mM NaCl, 3 μM GDP] and membranes expressing human APJ receptor/well along with WGA PS beads. The reaction was initiated by addition of 0.2 nM [^35S]GTPγS (Perkin Elmer Life and Analytical Sciences, Waltham USA) in the absence or presence of various ligands and incubated at RT for 90 min. Nonspecific binding was determined in the presence of 100 μM GTPγS and was always less than 0.2% of total binding. All the results presented are means of several independent experiments and analyzed by non-linear regression methods using commercially available program Prism (GraphPad, San Diego, Calif.) to obtain EC50 detailed in Table 26.

Sequence of APJ receptor (P35414 whole entry): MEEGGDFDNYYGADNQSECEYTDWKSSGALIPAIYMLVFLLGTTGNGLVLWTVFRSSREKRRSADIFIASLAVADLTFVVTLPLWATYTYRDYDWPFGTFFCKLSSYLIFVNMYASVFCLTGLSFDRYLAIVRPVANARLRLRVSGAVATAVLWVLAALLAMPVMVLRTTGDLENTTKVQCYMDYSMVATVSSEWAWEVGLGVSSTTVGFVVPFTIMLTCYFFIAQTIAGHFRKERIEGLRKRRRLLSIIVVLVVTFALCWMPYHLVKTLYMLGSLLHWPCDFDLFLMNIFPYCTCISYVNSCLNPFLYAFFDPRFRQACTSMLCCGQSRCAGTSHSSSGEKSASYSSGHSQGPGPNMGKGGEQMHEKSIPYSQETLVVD

EC50 [nM] | SMILES
5 | COc1cccc(OC)c1-n1c(NS(=O)(=O)[C@H](C)[C@H](O)c2ccnc3c2OCCC3)nnc1-c1ccc(C)o1 (racemic) [Example 291.0, (1R,2R)-1-(3,4-Dihydro-2H-pyrano[3,2-b]pyridin-8-yl)-N-(4-(2,6-dimethoxyphenyl)-5-(5-methyl-2-furanyl)-4H-1,2,4-triazol-3-yl)-1-hydroxy-2-propanesulfonamide and (1S,2S)-1-(3,4-dihydro-2H-pyrano[3,2-b]pyridin-8-yl)-N-(4-(2,6-dimethoxyphenyl)-5-(5-methyl-2-furanyl)-4H-1,2,4-triazol-3-yl)-1-hydroxy-2-propanesulfonamide]
6.1 | COc1ccccc1-n1c(NS(=O)(=O)[C@@H](C)Cc2ncc(F)cn2)nnc1-c1ccc(C)o1 (racemic) [Example 295.0, (2S)-1-(5-fluoro-2-pyrimidinyl)-N-(4-(2-methoxyphenyl)-5-(5-methyl-2-furanyl)-4H-1,2,4-triazol-3-yl)-2-propanesulfonamide and (2R)-1-(5-fluoro-2-pyrimidinyl)-N-(4-(2-methoxyphenyl)-5-(5-methyl-2-furanyl)-4H-1,2,4-triazol-3-yl)-2-propanesulfonamide]
18 | COc1cccc(OC)c1-n1c(NS(=O)(=O)[C@H](C)[C@H](O)c2cccc3nccn23)nnc1-c1ccc(C)o1 (racemic) [Example 306.0, (1R,2R)—N-(4-(2,6-Dimethoxyphenyl)-5-(5-methyl-2-furanyl)-4H-1,2,4-triazol-3-yl)-1-hydroxy-1-imidazo[1,2-a]pyridin-5-yl-2-propanesulfonamide and (1S,2S)—N-(4-(2,6-dimethoxyphenyl)-5-(5-methyl-2-furanyl)-4H-1,2,4-triazol-3-yl)-1-hydroxy-1-imidazo[1,2-a]pyridin-5-yl-2-propanesulfonamide]
210 | C[C@@H](Cc1ncc(F)cn1)S(=O)(=O)Nc1nnc(-c2ccco2)n1-c1ccccc1F (racemic) [Example 312.0, (2R)—N-(4-(2-Fluorophenyl)-5-(2-furanyl)-4H-1,2,4-triazol-3-yl)-1-(5-fluoro-2-pyrimidinyl)-2-propanesulfonamide and (2S)—N-(4-(2-fluorophenyl)-5-(2-furanyl)-4H-1,2,4-triazol-3-yl)-1-(5-fluoro-2-pyrimidinyl)-2-propanesulfonamide]
310 | Cc1ccc(-c2nnc(NS(=O)(=O)[C@@H](C)Cc3ncc(F)cn3)n2C2CCOCC2)o1 (racemic) [Example 317.0, (2S)-1-(5-Fluoro-2-pyrimidinyl)-N-(5-(5-methyl-2-furanyl)-4-(tetrahydro-2H-pyran-4-yl)-4H-1,2,4-triazol-3-yl)-2-propanesulfonamide and (2R)-1-(5-fluoro-2-pyrimidinyl)-N-(5-(5-methyl-2-furanyl)-4-(tetrahydro-2H-pyran-4-yl)-4H-1,2,4-triazol-3-yl)-2-propanesulfonamide]
610 | Cc1ccc(-c2nnc(NS(=O)(=O)[C@@H](C)Cc3ncc(F)cn3)n2C2CC2)o1 (racemic) [Example 319.0, (2R)—N-(4-Cyclopropyl-5-(5-methyl-2-furanyl)-4H-1,2,4-triazol-3-yl)-1-(5-fluoro-2-pyrimidinyl)-2-propanesulfonamide and (2S)—N-(4-cyclopropyl-5-(5-methyl-2-furanyl)-4H-1,2,4-triazol-3-yl)-1-(5-fluoro-2-pyrimidinyl)-2-propanesulfonamide]

SMILES | EC50 [nM]
COc1cccc(OC)c1-n1c(NS(=O)(=O)[C@@H](C)[C@@H](O)c2coc(C)n2)nnc1-c1ccc(C)o1 (racemic) [Example 300.0, (1R,2R)—N-(4-(2,6-Dimethoxyphenyl)-5-(5-methyl-2-furanyl)-4H-1,2,4-triazol-3-yl)-1-hydroxy-1-(2-methyl-1,3-oxazol-4-yl)-2-propanesulfonamide and (1S,2S)—N-(4-(2,6-dimethoxyphenyl)-5-(5-methyl-2-furanyl)-4H-1,2,4-triazol-3-yl)-1-hydroxy-1-(2-methyl-1,3-oxazol-4-yl)-2-propanesulfonamide] | 12
